From US7326733B2, “Methods for increasing bone density” (The Forsyth Institute, priority 2003, dated 2008)
Entries after “also recorded” stand apart in the source; their conditions may differ.

Assays:
Swiss Webster mice [1] = assay: Systemic fluoxetine, trabecular parameters in mice (Example 2); assay type: in vivo; conditions: fluoxetine 10 mg/kg i.p. once a day for 6 weeks, vs non-treated mice
Text: After 6 weeks the animals were sacrificed and trabecular bones were examined.
The increased number, increased connectivity, and decreased space between the transversal structures (i.e. trabeculae) of “spongelike bone” is indicative of increased density and strength of trabecular bone.

mice = assay: New bone formation in calvarium after LPS or PTH plus fluoxetine, Van Giesson stain (Example 3); assay type: in vivo
Protocol: LPS (50 μl at 5 μg/μl) or PTH was injected subcutaneously above the calvarial bone once on day one to stimulate the osteoclasts.
After five days, the mice were sacrificed. The calvarium was fixed, decalcified, and analyzed histologically for new bone formation. Van Giesson stain was used to distinguish old bone from new bone (new bone stains blue). […] The x-axis represents arbitrary units of new bone formation, where 0 represents no new bone and 3 represents high amount of new bone.

[2] = tested on: Primary osteoblasts obtained from mouse calvaria; assay: Bone nodule formation in vitro, Von Kossa stain (Example 5); assay type: cell-based; conditions: two weeks in presence of Vitamin D, presence vs absence of fluoxetine
Protocol: Primary osteoblasts obtained from mouse calvaria were cultured in vitro for two weeks. […] The cells were then fixed and stained with Von Kossa stain, which stains for calcium phosphate present in bone nodules. Bone nodules formed by osteoblasts in vitro have the same cellular and biochemical composition found in bone. The number of bone nodules were counted.

Swiss Webster mice [3] = assay: Femur bone mass by microcomputer tomography after fluoxetine (Example 6); assay type: in vivo; design: Trabecular thickness: unit not given here; conditions: for Trabecular number / Trabecular spacing / Trabecular thickness / connectedness of trabeculae: hydrochloride
RAW 264.7 cells = assay: RANKL-induced osteoclast formation by RAW 264.7 cells, TRAP staining; assay type: cell-based, mouse; conditions: for osteoclast differentiation (TRAP+ multinucleated osteoclasts): exposure 4 days
Protocol: RAW 264.7 mouse macrophage/monocytes (TIB-71) were purchased from ATCC (Manassas, Va.). Cells were cultured in DMEM/1.5 g/l sodium bicarbonate (JRH Biosciences, Lenexa, Kans.) plus 10% non-heat-inactivated FBS (Invitrogen Corporation Carlsbad, Calif.). When needed, 5-HT was stripped from the FBS by incubating it twice in 0.25% Dextran-coated charcoal (Sigma-Aldrich, St. Louis, Mo.) for 30 minutes at 45° C. Recombinant mouse soluble RANKL (Immunex Corp., Seattle, Wash.) was added at a concentration of 10 ng/ml. Recombinant murine RANKL is an NH2-terminal fusion of a leucine zipper trimerization domain (Fanslow et al., 1994, Semin. Immunol. 6(5):267-278) with residues 134-316 of murine RANKL. […] Cultures were also exposed to the VMAT inhibitor reserpine and the MAO-B inhibitor pargylline (Sigma-Aldrich, St. Louis, Mo.), at the indicated concentrations for 4 days. Mouse bone marrow cells were obtained from long bones of 2-week old C57B1 mice and cultured for 7 days in αMEM/FBS supplemented with 50 ng/ml RANKL and 50 ng/ml human M-CSF (PeproTech Inc., Rocky Hill, N.J.).
(§1) Cells were stained for tartrate-resistant acid phosphatase (TRAP) using a commercially available kit (#387-A, Sigma-Aldrich, St. Louis, Mo.), according to the manufacturer's directions.

[4] = tested on: cathepsin K, MMP-9, TRAP expression; assay: Northern blot analysis of osteoclast markers in RANKL-stimulated RAW 264.7 cells; assay type: cell-based, mouse; design: reduction in the expression of cathepsin K / reduction in the expression of MMP-9 / reduction in the expression of TRAP: dose or concentration left out as unconfirmed
Protocol: Total RNA was extracted from cells using the TRIAZOL reagent (Invitrogen Corporation, Carlsbad, Calif.), according to the manufacturer's instructions. For RT-PCR, […] of RNA were reversed-transcribed to cDNA using SuperScript II (Invitrogen Corporation, Carlsbad, Calif.) following the manufacturer's instructions. One-tenth of the cDNA was used as a template for the polymerase chain reaction (PCR) […] (35 cycles at 94° C. for 1 minute, 58° C. for 1 minute and 72° C. for 1 minute). For Northern blot analysis, […] of RNA were size fractionated on a 1.2% agarose denaturing gel and transferred onto nylon membranes. The membranes were hybridized to ^32P radiolabeled probes overnight at 42° C. in hybridization solution (50% formamide, 5× SSC, 5× Denhardt's solution, 0.5% SDS and […] salmon sperm DNA), washed twice to remove unbound probe in 1× SSC, 0.2% SDS at 50° C. for 20 minutes, and exposed to X-ray film. The DNA probes were generated by reverse transcriptase polymerase chain reaction (RT-PCR) from OCL RNA, using the following primer-pairs: […]

[5] = tested on: normal mouse bone marrow cells (BMC); assay: Osteoclast formation from normal mouse bone marrow cells with M-CSF and RANKL; assay type: cell-based; conditions: TRAP staining
Protocol: Mouse bone marrow cells were obtained from long bones of 2-week old C57B1 mice and cultured for 7 days in αMEM/FBS supplemented with 50 ng/ml RANKL and 50 ng/ml human M-CSF (PeproTech Inc., Rocky Hill, N.J.).
as §1

[6] = cited from earlier work
[7] = femur, fluoxetine 10 mg/kg i.p. daily for six weeks, n = 6
[8] = femur, fluoxetine 10 mg/kg i.p. daily for six weeks, n = 6, listed as Fluoxetine
[9] = fluoxetine-treated vs untreated mice
[10] = RANKL-stimulated RAW 264.7 cells
[11] = added serotonin in 5-HT-depleted FBS, Days 3 and 4 after RANKL induction

In the case of `CNCCC(Oc1ccc(C(F)(F)F)cc1)c1ccccc1.Cl` (racemic) [fluoxetine, (+/−)—N-methyl-3-phenyl-3-[(α,α,α-trifluoro-p-tolyl)oxy]propylamine hydrochloride], the Trabecular spacing (Swiss Webster mice [1]) is reported as “decreased”, the “number of trabeculae per unit length of bone” value (Swiss Webster mice [1]) is reported as “increased” and the thickness of trabeculae (Swiss Webster mice [1]) is reported as “no significant difference”. The “bone mineral content (BMC)” value (Swiss Webster mice [1]; hydrochloride) was “increase”, the connectedness of trabeculae (Swiss Webster mice [1]; hydrochloride) was “more connected; also recorded: increase” and the new bone formation (mice; LPS injected above calvarial bone on day one, fluoxetine 10 mg/kg i.p. once a day for five days, vs LPS alone, hydrochloride) was “increased new bone formation; also recorded: greater increase in new bone”. The new bone formation (mice; co-administration of fluoxetine and PTH, vs PTH alone) was “greater increase in new bone”, the “number of bone nodules” value [2] was “increased” and the Bone surface (Swiss Webster mice [3]; [7]) was 16.9 ± 7.3 mm^2. For the same compound, the Trabecular number (Swiss Webster mice [3]; [7]) was “significant increases”, the Trabecular spacing (Swiss Webster mice [3]; [7]) was “reduction” and the Trabecular thickness (Swiss Webster mice [3]; [7]) was “stable”. For the same compound, the connectedness of trabeculae (Swiss Webster mice [3]; [7]) was “better connected”, the Bone volume/total volume (Swiss Webster mice [3]; femur, fluoxetine 10 mg/kg i.p. daily for six weeks, n = 6, in % (unit assumed)) was 16.7 ± 7.3 and the Trabecular number (Swiss Webster mice [3]; [8]) was 3.26 ± 0.53. It also gave a Trabecular spacing (Swiss Webster mice [3]; [8]) of 0.32 ± 0.05, a Trabecular thickness (Swiss Webster mice [3]; [8]) of 0.09 ± 0.01 and a connectedness of trabeculae (Swiss Webster mice [3]; [8]) of 114.2 ± 53.0. The “increase in bone mineral content” value (Swiss Webster mice [3]; [9]) was 50%, the “increase in bone surface” value (Swiss Webster mice [3]; [9]) was 50% and the “increase in bone volume/total volume” value (Swiss Webster mice [3]; [9]) was 50%. The “formation of TRAP positive cells” value (RAW 264.7 cells; RANKL-induced RAW 264.7 cells, fluoxetine concentration series) was “inhibited the formation of TRAP positive cells in a dose-dependent manner”, the “osteoclast differentiation (TRAP positive multinucleated cells)” value (RAW 264.7 cells; RANKL-induced, 5-HT replete (FBS) and depleted (FBS−) serum) was “suppressed osteoclast differentiation” and the “reduction in the expression of MMP-9” value [4, 10] was 80%. For the same compound, the “reduction in the expression of TRAP” value [4, 10] was ~20%, the “reduction in the expression of cathepsin K” value [4, 10] was ~70% and the BMC-derived osteoclast formation [5] was “significantly inhibited”. For the same compound, the half-life ([6]; stated with the dosage range for treating depression) was 170 to 220 h and the ½ life ([6]; stated with the mouse i.p. regimen of Example 2) was 1 to 2 days.
For `C#CCN(C)Cc1ccccc1` [pargylline], the “osteoclast differentiation (TRAP+ multinucleated osteoclasts)” value (RAW 264.7 cells; presence of RANKL) was “had no effect”.
In the case of `COC(=O)[C@H]1[C@H]2C[C@@H]3c4[nH]c5cc(OC)ccc5c4CCN3C[C@H]2C[C@@H](OC(=O)c2cc(OC)c(OC)c(OC)c2)[C@@H]1OC` [reserpine], the “TRAP expression by mono- and bi-nucleated cells” value (RAW 264.7 cells; absence of RANKL) is reported as “induced TRAP expression”, the “formation of large multinucleated osteoclasts” value (RAW 264.7 cells; absence of RANKL) is reported as “not formed” and the “osteoclast differentiation (TRAP+ multinucleated osteoclasts)” value (RAW 264.7 cells; presence of RANKL) is reported as “promoted osteoclast differentiation”. For the same compound, the “cell size and multinucleation” value (RAW 264.7 cells; presence of RANKL, reserpine treatment) was “stimulated the formation of much larger cells with greater multinucleation”.
For `NCCc1c[nH]c2ccc(O)cc12` [serotonin, 5-hydroxytryptamine], the number of osteoclasts (RAW 264.7 cells; added serotonin at 30 or 300 ng/ml, 5-HT depleted FBS, RANKL-stimulated) was “significantly increased”, the osteoclast formation (RAW 264.7 cells; addition of serotonin 3-300 ng/ml, cultures containing FBS (5-HT replete)) was “had no effect” and the MMP-9 expression [4, 11] was “up-regulated”. For the same compound, the “cathepsin K expression” value [4, 11] was “up-regulated”.
